Measurements published in patent US20250257061A1, “COMPOSITIONS AND METHODS FOR TREATING CANCER AND REDUCING WNT MEDIATED EFFECTS” (StemSynergy Therapeutics, Inc., priority 2024, published 2025).
Like-named read-outs stand apart in the source and are kept apart here.

Tests used:
[1] = tested on: Wnt reporter (TCF/LEF1 promoter); experiment: HEK STF293 Wnt reporter (TOPFlash) luciferase assay, Steady Glo normalised to Cell Titer; assay type: cell-based, human
Method in brief: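 HEK STF293 cells carrying a TCF/LEF1-driven firefly luciferase were stimulated with Wnt3a-conditioned media (1:1) and compound at final 100 μM to 1 nM. Next day, lysates were read by Steady Glo luminescence. EC50 was derived from Steady Glo divided by Cell Titer to normalize for cell number.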

[2] = tested on: Wnt-dependent HCT116 cell line; experiment: Viability assay using Wnt-dependent HCT116 cell line (Cell Titer Glo); assay type: cell-based
Method in brief: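 HCT116 cells at 2,500 cells/well were treated on day 2 with DMSO-diluted compounds further diluted 500-fold in medium, giving a final 0.1% DMSO. Viability was read on day 5 by Cell Titer Glo luminescence.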

[3] = Homo sapiens, STF/293, Examples for Formulae (I), (II), and (III), HEK STF293 cells, Wnt3a-conditioned media, read-out: TOPFlash IC50 category
[4] = Homo sapiens, HCT-116, Examples for Formulae (I), (II), and (III), HCT116 cells, read-out: Viability IC50 category
[5] = Examples for Formulae (IV), (V), (VI), and (VII), HEK STF293 cells, Wnt3a-conditioned media, read-out: TOPFlash IC50 category
[6] = Examples for Formulae (IV), (V), (VI), and (VII), HCT116 cells, read-out: Viability IC50 category
[7] = Homo sapiens, STF/293, Examples for Formulae (IV), (V), (VI), and (VII), HEK STF293 cells, Wnt3a-conditioned media, read-out: TOPFlash IC50 category
[8] = Homo sapiens, HCT-116, Examples for Formulae (IV), (V), (VI), and (VII), HCT116 cells, read-out: Viability IC50 category

SMILES	IC50 [2, 4] [nM]	IC50 [2, 6] [nM]	IC50 [1, 3] [nM]	IC50 [1, 5] [nM]	also measured
O=C(Nc1nc(-c2ccccn2)cs1)c1ccc(=O)n(Cc2ccc(C(F)(F)F)cc2)c1 [Example 7]					IC50 ([1]; Homo sapiens, STF/293, Examples for Formulae (VIII), (IX), and (X), HEK STF293 cells, Wnt3a-conditioned media, read-out: TOPFlash IC50 category): 200 to 500 nM; IC50 ([2]; Homo sapiens, HCT-116, Examples for Formulae (VIII), (IX), and (X), HCT116 cells, read-out: Viability IC50 category): 200 to 500 nM
Cc1nn(Cc2ccc(C(F)(F)F)cc2)c(C)c1C(=O)Nc1nc(-c2ccccn2)cs1 [Example 16]	500 to 1000		500 to 1000		
Cc1onc(-c2ccccc2)c1C(=O)Nc1nc(-c2ccccn2)cs1 [Example 27]					IC50 ([1]; Homo sapiens, STF/293, read-out: TOPFlash IC50 category): 200 to 500 nM; IC50 ([2]; Homo sapiens, HCT-116, read-out: Viability IC50 category): 200 to 500 nM
COc1ccc(S(=O)(=O)N(C)c2ncc(C(=O)O)o2)cc1 [Example 40]		200 to 500		200 to 500	
O=C(Nc1nc(-c2ccccn2)cs1)c1oc(CN2CCOCC2)nc1-c1ccc(F)cc1 [Example 72]					IC50 [1, 7]: 200 to 500 nM; IC50 [2, 8]: 200 to 500 nM
Cc1nn(Cc2ccccc2)c(C)c1C(=O)Nc1nc(-c2ccccn2)cs1 [Example 4]	1000 to 10000		500 to 1000		
COc1cc(F)ccc1-c1ncoc1C(=O)Nc1nc(-c2ccccn2)cs1 [Example 46]		500 to 1000		500 to 1000	
O=C(Nc1nc(-c2ccccn2)cs1)c1cn(-c2ccccc2)nc1-c1ccccc1 [Example 14]	200 to 500		< 200		
Cc1nn(Cc2ccc(F)cc2)c(C)c1C(=O)Nc1nc(-c2ccccn2)cs1 [Example 7]	500 to 1000		500 to 1000		
O=C(Nc1nc(-c2ccccn2)cs1)c1ocnc1-c1ccc(F)cc1F [Example 12]					IC50 [1, 7]: 200 to 500 nM; IC50 [2, 8]: 200 to 500 nM
COc1cccc(-c2noc(C)c2C(=O)Nc2nc(-c3ccccn3)cs2)c1 [Example 18]					IC50 [1, 7]: 200 to 500 nM; IC50 [2, 8]: 500 to 1000 nM
Cc1onc(-c2ccc(Cl)cc2F)c1C(=O)Nc1nc(-c2ccccn2)cs1 [Example 16]					IC50 [1, 7]: 200 to 500 nM; IC50 [2, 8]: 200 to 500 nM

Second part, led by results:

IC50 [2, 4] [nM]	IC50 [2, 6] [nM]	SMILES	IC50 [1, 3] [nM]	IC50 [1, 5] [nM]	also measured
200 to 500		Cn1nc(C(=O)Nc2nc(-c3ccccn3)cs2)c(-c2ccc(F)cc2)n1 [Example 19]	200 to 500		
	< 200	CN(c1nc(-c2ccc(S(C)(=O)=O)cc2)c(C(=O)Nc2nc(-c3ccccn3)cs2)o1)S(=O)(=O)c1ccc(F)cc1 [Example 74]		< 200	
	500 to 1000	Cc1nc(N(C)C(=O)c2ccccc2Cl)oc1C(=O)Nc1nc(-c2ccccn2)cs1 [Example 77]		200 to 500	
	200 to 500	O=C(Nc1nc(-c2ccccn2)cs1)c1oc(C(F)F)nc1-c1ccc(F)cc1 [Example 33]		< 200	
	1000 to 10000	CN1CCN(c2cccc(-c3ncoc3C(=O)Nc3nc(-c4ccccn4)cs3)c2)CC1 [Example 45]		1000 to 10000	
1000 to 10000		O=C(Nc1nc(-c2ccccn2)cs1)c1c(C(F)(F)F)nn(-c2ccccc2)c1C(F)(F)F [Example 17]	1000 to 10000		
	500 to 1000	CN(c1nc(C(F)(F)F)c(C(=O)Nc2nc(-c3ccccn3)cs2)o1)S(=O)(=O)c1ccc(Cl)cc1 [Example 53]		500 to 1000	
